“And” between values parts separate entries of the source, which are not always exact repeats. Identical values can stand only once. HELM strings list units from the 5' end as sugar, base in round brackets, then linkage (d deoxyribose, r ribose, m 2'-O-methyl, p phosphodiester). Methylation of C is not given here. [moe] = 2'-O-(2-methoxyethyl) (MOE); [cEt] = constrained ethyl (cEt); [sp] = phosphorothioate linkage
Target: HBV
Settings: ASO

## RNA1{[moe](A)[sp].[moe](A)[sp].[moe](C)[sp].[moe](C)[sp].[moe](A)[sp].d(C)[sp].d(T)[sp].d(G)[sp].d(A)[sp].d(A)[sp].d(C)[sp].d(A)[sp].d(A)[sp].d(A)[sp].[moe](T)[sp].[moe](G)[sp].[moe](G)}$$$$V2.0
HepG2, 0.07 µM
  target mRNA inhibition: 55% and 52%

## RNA1{[moe](A)[sp].[moe](C)[sp].d(T)[sp].d(A)[sp].d(G)[sp].d(T)[sp].d(A)[sp].d(A)[sp].d(A)[sp].d(C)[sp].d(T)[sp].[moe](G)[sp].[moe](A)[sp].[moe](G)[sp].[moe](C)[sp].[moe](C)}$$$$V2.0
HepG2, 0.07 µM
  target mRNA inhibition: 57% and 47%

## RNA1{[moe](G)[sp].[moe](G)[sp].[moe](T)[sp].[moe](G)[sp].[moe](A)[sp].d(A)[sp].d(G)[sp].d(C)[sp].d(G)[sp].d(A)[sp].d(A)[sp].d(G)[sp].d(T)[sp].d(G)[sp].[moe](C)[sp].[moe](A)[sp].[moe](C)}$$$$V2.0
HepG2, 0.07 µM
  target mRNA inhibition: 64% and 66%

## RNA1{[moe](C)[sp].[moe](A)[sp].[moe](C)[sp].[moe](T)[sp].[moe](A)[sp].[moe](G)[sp].d(T)[sp].d(A)[sp].d(A)[sp].d(A)[sp].d(C)[sp].d(T)[sp].d(G)[sp].d(A)[sp].d(G)[sp].[moe](C)[sp].[moe](C)}$$$$V2.0
HepG2, 0.0092593 µM
  target mRNA inhibition: 12%
HepG2, 0.0277778 µM
  target mRNA inhibition: 40%
HepG2, 0.07 µM
  target mRNA inhibition: 87% and 72%
HepG2, 0.0833333 µM
  target mRNA inhibition: 42%
HepG2, 0.25 µM
  target mRNA inhibition: 65%

## RNA1{[moe](A)[sp].[cEt](A)[sp].[cEt](T)[sp].d(T)[sp].d(T)[sp].d(A)[sp].d(T)[sp].d(G)[sp].d(C)[sp].d(C)[sp].d(T)[sp].d(A)[sp].d(C)[sp].[cEt](A)[sp].[cEt](G)[sp].[moe](C)}$$$$V2.0
HepG2, 0.07 µM
  target mRNA inhibition: 70% and 73%

## RNA1{[moe](C)[sp].[moe](A)[sp].[moe](A)[sp].[moe](T)[sp].d(T)[sp].d(T)[sp].d(A)[sp].d(T)[sp].d(G)[sp].d(C)[sp].d(C)[sp].d(T)[sp].d(A)[sp].[moe](C)[sp].[moe](A)[sp].[moe](G)[sp].[moe](C)}$$$$V2.0
HepG2, 0.07 µM
  target mRNA inhibition: 34% and 25%

## RNA1{[moe](A)[sp].[moe](A)[sp].[moe](T)[sp].[moe](T)[sp].[moe](T)[sp].[moe](A)[sp].d(T)[sp].d(G)[sp].d(C)[sp].d(C)[sp].d(T)[sp].d(A)[sp].d(C)[sp].d(A)[sp].d(G)[sp].[moe](C)[sp].[moe](C)}$$$$V2.0
HepG2, 0.07 µM
  target mRNA inhibition: 53% and 48%

## RNA1{[moe](A)[sp].[moe](A)[sp].[moe](G)[sp].[moe](C)[sp].d(G)[sp].d(A)[sp].d(A)[sp].d(G)[sp].d(T)[sp].d(G)[sp].d(C)[sp].d(A)[sp].d(C)[sp].[moe](A)[sp].[moe](C)[sp].[moe](G)[sp].[moe](G)}$$$$V2.0
HepG2, 0.0092593 µM
  target mRNA inhibition: 5%
HepG2, 0.0277778 µM
  target mRNA inhibition: 27%
HepG2, 0.07 µM
  target mRNA inhibition: 78% and 64%
HepG2, 0.0833333 µM
  target mRNA inhibition: 69%
HepG2, 0.25 µM
  target mRNA inhibition: 81%

## RNA1{[moe](C)[sp].[cEt](A)[sp].[cEt](G)[sp].d(C)[sp].d(A)[sp].d(A)[sp].d(A)[sp].d(C)[sp].d(A)[sp].d(C)[sp].d(T)[sp].d(T)[sp].d(G)[sp].[cEt](G)[sp].[cEt](C)[sp].[moe](A)}$$$$V2.0
HepG2, 0.07 µM
  target mRNA inhibition: 62% and 61%

## RNA1{[moe](C)[sp].[moe](C)[sp].[moe](A)[sp].[moe](C)[sp].d(T)[sp].d(G)[sp].d(A)[sp].d(A)[sp].d(C)[sp].d(A)[sp].d(A)[sp].d(A)[sp].d(T)[sp].[moe](G)[sp].[moe](G)[sp].[moe](C)}$$$$V2.0
HepG2, 0.07 µM
  target mRNA inhibition: 57% and 68%

## RNA1{[moe](C)[sp].[moe](G)[sp].[moe](T)[sp].d(G)[sp].d(C)[sp].d(A)[sp].d(G)[sp].d(A)[sp].d(G)[sp].d(G)[sp].d(T)[sp].d(G)[sp].d(A)[sp].[cEt](A)[sp].[cEt](G)[sp].[cEt](C)}$$$$V2.0
HepG2, 0.07 µM
  target mRNA inhibition: 72% and 60%

## RNA1{[moe](G)[sp].[moe](T)[sp].d(G)[sp].d(A)[sp].d(A)[sp].d(G)[sp].d(C)[sp].d(G)[sp].d(A)[sp].d(A)[sp].d(G)[sp].[moe](T)[sp].[moe](G)[sp].[moe](C)[sp].[moe](A)[sp].[moe](C)}$$$$V2.0
HepG2, 0.07 µM
  target mRNA inhibition: 68% and 60%

## RNA1{[moe](G)[sp].[moe](T)[sp].[moe](G)[sp].[moe](C)[sp].[moe](A)[sp].[moe](G)[sp].d(A)[sp].d(G)[sp].d(G)[sp].d(T)[sp].d(G)[sp].d(A)[sp].d(A)[sp].d(G)[sp].d(C)[sp].[moe](G)[sp].[moe](A)}$$$$V2.0
HepG2, 0.0092593 µM
  target mRNA inhibition: 7%
HepG2, 0.0277778 µM
  target mRNA inhibition: 4%
HepG2, 0.07 µM
  target mRNA inhibition: 78% and 70%
HepG2, 0.0833333 µM
  target mRNA inhibition: 38%
HepG2, 0.25 µM
  target mRNA inhibition: 76%

## RNA1{[moe](T)[sp].[cEt](G)[sp].[cEt](A)[sp].d(G)[sp].d(G)[sp].d(C)[sp].d(C)[sp].d(C)[sp].d(A)[sp].d(C)[sp].d(T)[sp].d(C)[sp].d(C)[sp].[cEt](C)[sp].[cEt](A)[sp].[moe](T)}$$$$V2.0
HepG2, 0.07 µM
  target mRNA inhibition: 56% and 80%

## RNA1{[moe](G)[sp].[moe](G)[sp].[moe](T)[sp].d(G)[sp].d(A)[sp].d(A)[sp].d(G)[sp].d(C)[sp].d(G)[sp].d(A)[sp].d(A)[sp].d(G)[sp].d(T)[sp].[cEt](G)[sp].[cEt](C)[sp].[cEt](A)}$$$$V2.0
HepG2, 0.0092593 µM
  target mRNA inhibition: 15%
HepG2, 0.0277778 µM
  target mRNA inhibition: 42%
HepG2, 0.07 µM
  target mRNA inhibition: 72% and 83%
HepG2, 0.0833333 µM
  target mRNA inhibition: 67%
HepG2, 0.25 µM
  target mRNA inhibition: 88%

## RNA1{[moe](C)[sp].[moe](A)[sp].d(C)[sp].d(T)[sp].d(A)[sp].d(G)[sp].d(T)[sp].d(A)[sp].d(A)[sp].d(A)[sp].d(C)[sp].[moe](T)[sp].[moe](G)[sp].[moe](A)[sp].[moe](G)[sp].[moe](C)[sp].[moe](C)}$$$$V2.0
HepG2, 0.07 µM
  target mRNA inhibition: 73% and 66%

## RNA1{[moe](A)[sp].[moe](C)[sp].[moe](G)[sp].d(T)[sp].d(G)[sp].d(C)[sp].d(A)[sp].d(G)[sp].d(A)[sp].d(G)[sp].d(G)[sp].d(T)[sp].[moe](G)[sp].[moe](A)[sp].[moe](A)[sp].[moe](G)}$$$$V2.0
HepG2, 0.07 µM
  target mRNA inhibition: 51% and 35%

## RNA1{[moe](C)[sp].[moe](G)[sp].[moe](T)[sp].[moe](G)[sp].[moe](C)[sp].[moe](A)[sp].d(G)[sp].d(A)[sp].d(G)[sp].d(G)[sp].d(T)[sp].d(G)[sp].d(A)[sp].d(A)[sp].d(G)[sp].[moe](C)[sp].[moe](G)}$$$$V2.0
HepG2, 0.07 µM
  target mRNA inhibition: 81% and 64%

## RNA1{[moe](C)[sp].[cEt](T)[sp].[cEt](A)[sp].d(G)[sp].d(T)[sp].d(A)[sp].d(A)[sp].d(A)[sp].d(C)[sp].d(T)[sp].d(G)[sp].d(A)[sp].d(G)[sp].[cEt](C)[sp].[cEt](C)[sp].[moe](A)}$$$$V2.0
HepG2, 0.0092593 µM
  target mRNA inhibition: 33%
HepG2, 0.0277778 µM
  target mRNA inhibition: 49%
HepG2, 0.07 µM
  target mRNA inhibition: 76% and 71%
HepG2, 0.0833333 µM
  target mRNA inhibition: 71%
HepG2, 0.25 µM
  target mRNA inhibition: 88%

## RNA1{[moe](A)[sp].[moe](A)[sp].d(G)[sp].d(C)[sp].d(G)[sp].d(A)[sp].d(A)[sp].d(G)[sp].d(T)[sp].d(G)[sp].d(C)[sp].[moe](A)[sp].[moe](C)[sp].[moe](A)[sp].[moe](C)[sp].[moe](G)}$$$$V2.0
HepG2, 0.07 µM
  target mRNA inhibition: 70% and 68%

## RNA1{[moe](C)[sp].[moe](C)[sp].[moe](G)[sp].[moe](C)[sp].[moe](A)[sp].d(G)[sp].d(T)[sp].d(A)[sp].d(T)[sp].d(G)[sp].d(G)[sp].d(A)[sp].d(T)[sp].d(C)[sp].[moe](G)[sp].[moe](G)[sp].[moe](C)}$$$$V2.0
HepG2, 0.0092593 µM
  target mRNA inhibition: 5%
HepG2, 0.0277778 µM
  target mRNA inhibition: 38%
HepG2, 0.07 µM
  target mRNA inhibition: 86% and 76%
HepG2, 0.0833333 µM
  target mRNA inhibition: 65%
HepG2, 0.25 µM
  target mRNA inhibition: 86%

## RNA1{[moe](G)[sp].[cEt](T)[sp].d(C)[sp].d(C)[sp].d(A)[sp].d(C)[sp].d(C)[sp].d(A)[sp].d(C)[sp].d(G)[sp].d(A)[sp].d(G)[sp].[cEt](T)[sp].[moe](C)[sp].[cEt](T)[sp].[moe](A)}$$$$V2.0
HepG2, 0.07 µM
  target mRNA inhibition: 51% and 38%

## RNA1{[moe](G)[sp].[moe](T)[sp].[moe](T)[sp].[moe](C)[sp].d(C)[sp].d(G)[sp].d(C)[sp].d(A)[sp].d(G)[sp].d(T)[sp].d(A)[sp].d(T)[sp].d(G)[sp].[moe](G)[sp].[moe](A)[sp].[moe](T)[sp].[moe](C)}$$$$V2.0
HepG2, 0.07 µM
  target mRNA inhibition: 52% and 43%

## RNA1{[moe](G)[sp].[cEt](T)[sp].[cEt](G)[sp].d(A)[sp].d(A)[sp].d(G)[sp].d(C)[sp].d(G)[sp].d(A)[sp].d(A)[sp].d(G)[sp].d(T)[sp].d(G)[sp].[cEt](C)[sp].[cEt](A)[sp].[moe](C)}$$$$V2.0
HepG2, 0.07 µM
  target mRNA inhibition: 68% and 75%

## RNA1{[moe](A)[sp].[moe](C)[sp].[moe](T)[sp].[moe](G)[sp].[moe](G)[sp].d(A)[sp].d(G)[sp].d(C)[sp].d(C)[sp].d(A)[sp].d(C)[sp].d(C)[sp].d(A)[sp].d(G)[sp].[moe](C)[sp].[moe](A)[sp].[moe](G)}$$$$V2.0
HepG2, 0.07 µM
  target mRNA inhibition: 46% and 39%

## RNA1{[moe](G)[sp].[moe](A)[sp].[moe](G)[sp].[cEt](G)[sp].[cEt](T)[sp].d(G)[sp].d(A)[sp].d(A)[sp].d(G)[sp].d(C)[sp].d(G)[sp].d(A)[sp].[cEt](A)[sp].[cEt](G)[sp].[moe](T)[sp].[moe](G)[sp].[moe](C)}$$$$V2.0
HepG2, 0.009375 µM
  target mRNA inhibition: 19%
HepG2, 0.01875 µM
  target mRNA inhibition: 27%
HepG2, 0.0375 µM
  target mRNA inhibition: 35%
HepG2, 0.075 µM
  target mRNA inhibition: 48%
HepG2, 0.15 µM
  target mRNA inhibition: 50%
HepG2, 0.3 µM
  target mRNA inhibition: 63%

## RNA1{[moe](G)[sp].[moe](A)[sp].[moe](A)[sp].[moe](G)[sp].d(T)[sp].d(C)[sp].d(C)[sp].d(A)[sp].d(C)[sp].d(C)[sp].d(A)[sp].d(C)[sp].d(G)[sp].[moe](A)[sp].[moe](G)[sp].[moe](T)[sp].[moe](C)}$$$$V2.0
HepG2, 0.07 µM
  target mRNA inhibition: 48% and 36%

## RNA1{[moe](A)[sp].[moe](C)[sp].d(T)[sp].d(A)[sp].d(G)[sp].d(T)[sp].d(A)[sp].d(A)[sp].d(A)[sp].d(C)[sp].d(T)[sp].[moe](G)[sp].[moe](A)[sp].[moe](G)[sp].[moe](C)[sp].[moe](C)[sp].[moe](A)}$$$$V2.0
HepG2, 0.07 µM
  target mRNA inhibition: 61%

## RNA1{[moe](T)[sp].[moe](G)[sp].[moe](A)[sp].[moe](G)[sp].[moe](G)[sp].[moe](C)[sp].d(A)[sp].d(T)[sp].d(A)[sp].d(G)[sp].d(C)[sp].d(A)[sp].d(G)[sp].d(C)[sp].d(A)[sp].[moe](G)[sp].[moe](G)}$$$$V2.0
HepG2, 0.07 µM
  target mRNA inhibition: 58% and 44%
